Calls of active or inactive are those of the source. The calls are words filed in the database; no cut-off is given here.
Tests used:
Mus musculus [1] = assay: Increase in peptide YY level in 3-day high fat diet fed C57BL/6 mouse at 10 mg/kg, po daily for 3 days; format: functional, organism-based; parameters: dose 10 mg/kg
Mus musculus [2] = assay: Decrease in plasma triglyceride level in […] C57BL/6 mouse at 10 mg/kg, po daily for 3 days measured after 6 hrs; format: functional
HepG2 = assay: Inhibition of apoB secretion in human HepG2 cells after 40 hrs by ELISA; format: functional, cell-based; conditions: HepG2, 40 h
[3] = Inhibition of MTP from dog liver microsomes by scintillation counting; parameters: species or system Canis lupus familiaris, Microsome
Mus musculus [4] = assay: Decrease in total food intake in 3-day high fat diet fed C57BL/6 mouse at 10 mg/kg, po daily for 3 days; format: functional
Mus musculus [5] = assay: Decrease in body weight in […] at 10 mg/kg, po daily for 3 days; format: functional, C57BL/6

Structure (SMILES) | Activity (Mus musculus [1]) | Activity (Mus musculus [2]) | IC50 (HepG2) [nM] | IC50 [3] [nM] | Activity (Mus musculus [4]) | Activity (Mus musculus [5])
Cc1csc2nc(-c3ccccc3C(=O)Nc3ccc4nc(C(=O)N[C@H](C(=O)N(C)Cc5ccc(F)cc5)c5ccccc5)sc4c3)cn12 | inactive | inactive | 6.9 | 16.9 | inactive | inactive
CN(Cc1ccc(F)cc1)C(=O)[C@@H](NC(=O)c1nc2ccc(NC(=O)c3ccccc3-c3nc(C(C)(C)C)cs3)cc2s1)c1ccccc1 | inactive | inactive | 4 | 4.6 | inactive | inactive
CN(Cc1ccccc1)C(=O)[C@@H](NC(=O)c1cc2cc(NC(=O)c3ccccc3-c3ccc(C(F)(F)F)cc3)ccc2n1C)c1ccccc1 [DIRLOTAPIDE] | – | – | 4 | 2 | – | –
CC(C)(C)c1ccc(-c2ccccc2C(=O)Nc2ccc3nc(C(=O)N[C@H](C(=O)N4CCCC4)c4ccccc4)sc3c2)cc1 | – | – | 1.5 | 2.6 | – | –
COc1cccc(C(=O)Nc2ccc3nc(C(=O)N[C@H](C(=O)N(C)Cc4ccc(F)cc4)c4ccccc4)sc3c2)c1-c1ccc(C(C)(C)C)cc1 | Active | Active | 2.4 | 7.9 | Active | Active
CC(C)(C)c1ccc(-c2ccccc2C(=O)Nc2ccc3nc(C(=O)N[C@@H](C(=O)N4CCCC4)c4ccccc4)sc3c2)cc1 | – | – | 34.8 | – | – | –
CN(Cc1ccc(F)cc1)C(=O)[C@@H](NC(=O)c1nc2ccc(NC(=O)c3ccccc3-c3ccc(C(C)(C)C)cc3)cc2s1)c1ccccc1 | Active | Active | 2.7 | 3 | Active | Active
CN(Cc1ccc(F)cc1)C(=O)[C@@H](NC(=O)c1nc2ccc(NC(=O)c3ccccc3-c3cn4ccsc4n3)cc2s1)c1ccccc1 | inactive | inactive | 23.7 | 14.8 | inactive | inactive
